Measured values reported in article PMC12121777 (PLOS One, 2025).
In brackets after ≈: the same amount, converted by molar mass. Like-named read-outs stand apart in the source and are kept apart here.

Experiments:
Test in all cases: microbe, parasite or virus in culture
Assay type in all cases: cell-based
[1] = tested on: Mtb 9449/2007; conditions: Mycobacterium tuberculosis, read-out: MIC Mtb 9449/2007
[2] = tested on: Mtb Praha 4; conditions: Mycobacterium tuberculosis, read-out: MIC Mtb Praha 4
[3] = tested on: Mtb Praha 1; conditions: Mycobacterium tuberculosis, read-out: MIC Mtb Praha 1
[4] = tested on: Mtb 8666/2010; conditions: Mycobacterium tuberculosis, read-out: MIC Mtb 8666/2010
[5] = tested on: Mtb 7357/1998; conditions: Mycobacterium tuberculosis, read-out: MIC Mtb 7357/1998
[6] = tested on: Mtb Praha 131; conditions: Mycobacterium tuberculosis, read-out: MIC Mtb Praha 131
[7] = tested on: Mtb 234/2005; conditions: Mycobacterium tuberculosis, read-out: MIC Mtb 234/2005

Structure (SMILES)	MIC ([1]; 9449/2007, 336 h) [µM]	MIC ([1]; 9449/2007, 504 h) [µM]	MIC ([2]; PRAHA4, 336 h) [µM]	MIC ([2]; PRAHA4, 504 h) [µM]	MIC ([3]; PRAHA1, 336 h) [µM]	MIC ([3]; PRAHA1, 504 h) [µM]	MIC ([4]; 8666/2010, 336 h) [µM]	MIC ([4]; 8666/2010, 504 h) [µM]	MIC ([5]; 7357/1998, 336 h) [µM]	MIC ([5]; 7357/1998, 504 h) [µM]	MIC ([6]; PRAHA131, 336 h) [µM]	MIC ([6]; PRAHA131, 504 h) [µM]	MIC ([7]; 234/2005, 336 h) [µM]	MIC ([7]; 234/2005, 504 h) [µM]
CCCCCCCCCNc1nnc(-c2cc([N+](=O)[O-])cc([N+](=O)[O-])c2)o1 [Compound 5i, 5-(3,5-Dinitrophenyl)-N-nonyl-1,3,4-oxadiazol-2-amine]	0.06 (≈ 0.0226 µg/mL)	0.06 (≈ 0.0226 µg/mL)	0.125 (≈ 0.0472 µg/mL)	0.125 (≈ 0.0472 µg/mL)	0.125 (≈ 0.0472 µg/mL)	0.125 (≈ 0.0472 µg/mL)	0.06 (≈ 0.0226 µg/mL)	0.06 (≈ 0.0226 µg/mL)	0.125 (≈ 0.0472 µg/mL)	0.125 (≈ 0.0472 µg/mL)	0.06 (≈ 0.0226 µg/mL)	0.06 (≈ 0.0226 µg/mL)	0.125 (≈ 0.0472 µg/mL)	0.125 (≈ 0.0472 µg/mL)
CCCCCCCCCCCCNc1nnc(-c2cc([N+](=O)[O-])cc([N+](=O)[O-])c2)o1 [Compound 5l, 5-(3,5-Dinitrophenyl)-N-dodecyl-1,3,4-oxadiazol-2-amine]	0.25 (≈ 0.105 µg/mL)	0.5 (≈ 0.21 µg/mL)	0.25 (≈ 0.105 µg/mL)	0.5 (≈ 0.21 µg/mL)	0.25 (≈ 0.105 µg/mL)	0.5 (≈ 0.21 µg/mL)	0.25 (≈ 0.105 µg/mL)	0.5 (≈ 0.21 µg/mL)	0.5 (≈ 0.21 µg/mL)	0.5 (≈ 0.21 µg/mL)	0.25 (≈ 0.105 µg/mL)	0.5 (≈ 0.21 µg/mL)	0.25 (≈ 0.105 µg/mL)	0.5 (≈ 0.21 µg/mL)
COc1ccc(CNc2nnc(-c3cc([N+](=O)[O-])cc([N+](=O)[O-])c3)o2)cc1 [Compound 7b, 5-(3,5-Dinitrophenyl)-N-(4-methoxybenzyl)-1,3,4-oxadiazol-2-amine]	≤ 0.03	≤ 0.03	≤ 0.03	≤ 0.03	≤ 0.03	≤ 0.03	≤ 0.03	≤ 0.03	≤ 0.03	≤ 0.03	≤ 0.03	≤ 0.03	≤ 0.03	0.06 (≈ 0.0223 µg/mL)
CCCCCCCCCCCCCNc1nnc(-c2cc([N+](=O)[O-])cc([N+](=O)[O-])c2)o1 [Compound 5m, 5-(3,5-Dinitrophenyl)-N-tridecyl-1,3,4-oxadiazol-2-amine]	0.06 (≈ 0.026 µg/mL)	0.125 (≈ 0.0542 µg/mL)	0.06 (≈ 0.026 µg/mL)	0.125 (≈ 0.0542 µg/mL)	0.125 (≈ 0.0542 µg/mL)	0.125 (≈ 0.0542 µg/mL)	0.06 (≈ 0.026 µg/mL)	0.125 (≈ 0.0542 µg/mL)	0.25 (≈ 0.108 µg/mL)	0.25 (≈ 0.108 µg/mL)	0.125 (≈ 0.0542 µg/mL)	0.125 (≈ 0.0542 µg/mL)	0.125 (≈ 0.0542 µg/mL)	0.125 (≈ 0.0542 µg/mL)
CCCCCCCCCCCCNC(=S)NNC(=O)c1cc([N+](=O)[O-])cc([N+](=O)[O-])c1 [Compound 4s, 2-(3,5-Dinitrobenzoyl)-N-dodecylhydrazine-1-carbothioamide]	2 (≈ 0.907 µg/mL)	2 (≈ 0.907 µg/mL)	2 (≈ 0.907 µg/mL)	2 (≈ 0.907 µg/mL)	2 (≈ 0.907 µg/mL)	2 (≈ 0.907 µg/mL)	1 (≈ 0.454 µg/mL)	2 (≈ 0.907 µg/mL)	1 (≈ 0.454 µg/mL)	2 (≈ 0.907 µg/mL)	2 (≈ 0.907 µg/mL)	4 (≈ 1.81 µg/mL)	2 (≈ 0.907 µg/mL)	4 (≈ 1.81 µg/mL)
CCCCNc1nnc(-c2cc([N+](=O)[O-])cc([N+](=O)[O-])c2)o1 [Compound 5d, N-Butyl-5-(3,5-dinitrophenyl)-1,3,4-oxadiazol-2-amine]	0.5 (≈ 0.154 µg/mL)	0.5 (≈ 0.154 µg/mL)	0.5 (≈ 0.154 µg/mL)	1 (≈ 0.307 µg/mL)	1 (≈ 0.307 µg/mL)	1 (≈ 0.307 µg/mL)	0.5 (≈ 0.154 µg/mL)	0.5 (≈ 0.154 µg/mL)	0.5 (≈ 0.154 µg/mL)	1 (≈ 0.307 µg/mL)	0.5 (≈ 0.154 µg/mL)	1 (≈ 0.307 µg/mL)	0.5 (≈ 0.154 µg/mL)	1 (≈ 0.307 µg/mL)
COc1ccc(CNc2nnc(-c3cc([N+](=O)[O-])cc([N+](=O)[O-])c3)s2)cc1 [Compound 8b, 5-(3,5-Dinitrophenyl)-N-(4-methoxybenzyl)-1,3,4-thiadiazol-2-amine]	≤ 0.03	≤ 0.03	≤ 0.03	≤ 0.03	≤ 0.03	≤ 0.03	≤ 0.03	≤ 0.03	≤ 0.03	≤ 0.03	≤ 0.03	≤ 0.03	≤ 0.03	≤ 0.03
CCCCCCCCCCNc1nnc(-c2cc([N+](=O)[O-])cc([N+](=O)[O-])c2)o1 [Compound 5j, N-Decyl-5-(3,5-dinitrophenyl)-1,3,4-oxadiazol-2-amine]	0.25 (≈ 0.0979 µg/mL)	0.5 (≈ 0.196 µg/mL)	0.25 (≈ 0.0979 µg/mL)	0.5 (≈ 0.196 µg/mL)	0.25 (≈ 0.0979 µg/mL)	0.5 (≈ 0.196 µg/mL)	0.25 (≈ 0.0979 µg/mL)	0.5 (≈ 0.196 µg/mL)	0.25 (≈ 0.0979 µg/mL)	0.5 (≈ 0.196 µg/mL)	0.25 (≈ 0.0979 µg/mL)	0.5 (≈ 0.196 µg/mL)	0.25 (≈ 0.0979 µg/mL)	0.5 (≈ 0.196 µg/mL)
